For this series the following is noted: Crystal; DTA.

Molecules are shown by their SMILES. ± gives the expanded uncertainty stated by the source.

Turning to `C=C(C)[C@@H]1CC[C@]2(C(=O)O)CC[C@]3(C)[C@H](CC[C@@H]4[C@@]5(C)CC[C@H](O)C(C)(C)[C@@H]5CC[C@]43C)[C@@H]12` [betulinic acid], the Normal melting temperature stood at 315.30 ± 0.5 °C.

The record behind these values is the NIST ThermoML archive (doi:10.1021/je200531k).
